Values quoted from earlier work, collected in patent US12011508B2, “Methods and devices for reducing vascular smooth muscle cell proliferation” (Board of Supervisors of Louisiana State University and …, priority 2018, dated 2024).

O=c1c(O)c(-c2ccc(O)c(O)c2)oc2cc(O)cc(O)c12 [QUER, 2-(3,4-dihydroxyphenyl)-3,5,7-trihydroxy-4H-1-benzopyran-4-one]
water solubility: practically insoluble in water
